Data reported in PubChem BioAssay (NCI).
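Protocol summary: plate cells (96-well), add compound at 5 concentrations, incubate 48 h, interpolate endpoints linearly. The concentration for full growth arrest is given as TGI.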

Columns and labels:
Assay in all cases: inhibition of tumour cell growth, NCI panel, 48 h
ACHN renal = system: ACHN renal
SK-OV-3 ovarian = system: SK-OV-3 ovarian
OVCAR-5 ovarian = system: OVCAR-5 ovarian
SK-MEL-2 melanoma = system: SK-MEL-2 melanoma
HOP-18 NSCLC = system: HOP-18 NSCLC
SF-268 CNS = system: SF-268 CNS
NCI-H522 lung = system: NCI-H522 lung
EKVX NSCLC = system: EKVX NSCLC
DLD-1 colon = system: DLD-1 colon
K-562 leukemia = system: K-562 leukemia
HCT-15 colon = system: HCT-15 colon
UACC-62 melanoma = system: UACC-62 melanoma
OVCAR-3 ovarian = system: OVCAR-3 ovarian
SR leukemia = system: SR leukemia
786-0 renal = system: 786-0 renal
HL-60(TB) leukemia = system: HL-60(TB) leukemia
U251 CNS = system: U251 CNS
MOLT-4 leukemia = system: MOLT-4 leukemia
MALME-3M melanoma = system: MALME-3M melanoma
HOP-92 NSCLC = system: HOP-92 NSCLC
M19-MEL melanoma = system: M19-MEL melanoma
NCI-H460 lung = system: NCI-H460 lung
XF 498 CNS = system: XF 498 CNS
M14 melanoma = system: M14 melanoma
RXF 393 renal = system: RXF 393 renal
HCT-116 colon = system: HCT-116 colon
SW-620 colon = system: SW-620 colon
OVCAR-8 ovarian = system: OVCAR-8 ovarian
OVCAR-4 ovarian = system: OVCAR-4 ovarian
HCC-2998 colon = system: HCC-2998 colon
LXFL 529 NSCLC = system: LXFL 529 NSCLC
SF-539 CNS = system: SF-539 CNS
LOX IMVI melanoma = system: LOX IMVI melanoma
A549 NSCLC = system: A549 NSCLC
COLO 205 colon = system: COLO 205 colon
NCI-H226 lung = system: NCI-H226 lung
SN12C renal = system: SN12C renal
HT29 colon = system: HT29 colon
A498 renal = system: A498 renal
DMS 273 small cell lung = system: DMS 273 small cell lung
SF-295 CNS = system: SF-295 CNS
SK-MEL-5 melanoma = system: SK-MEL-5 melanoma
SNB-78 CNS = system: SNB-78 CNS
KM20L2 colon = system: KM20L2 colon
SK-MEL-28 melanoma = system: SK-MEL-28 melanoma
IGROV1 ovarian = system: IGROV1 ovarian
UACC-257 melanoma = system: UACC-257 melanoma
NCI-H23 lung = system: NCI-H23 lung
RPMI-8226 leukemia = system: RPMI-8226 leukemia
KM12 colon = system: KM12 colon
DMS 114 small cell lung = system: DMS 114 small cell lung
UO-31 renal = system: UO-31 renal
TK-10 renal = system: TK-10 renal
SNB-75 CNS = system: SNB-75 CNS
CCRF-CEM leukemia = system: CCRF-CEM leukemia
SNB-19 CNS = system: SNB-19 CNS
HOP-62 NSCLC = system: HOP-62 NSCLC
CAKI-1 renal = system: CAKI-1 renal
RXF-631 renal = system: RXF-631 renal

Measured: TGI

CS(=O)(=O)OCCCOS(C)(=O)=O
not listed: CAKI-1 renal | RXF-631 renal
> 100 µM: all other assays above

CC(C)CN(CC(C)C)C(=O)C1CCCC[C@@H]1C(=O)O (some centres not stated)
not listed: OVCAR-5 ovarian | XF 498 CNS | RXF 393 renal | SNB-19 CNS
> 100 µM: all other assays above
